# Assay results: patent US20040220086A1, “Methods and materials for targeting and affecting selected cells” (priority 2001, published 2004)
# B1: neocarzinostatin (protein, UniProt P0A3R9 35-147, looked up)
# Neocarzinostatin: AAPTATVTPSSGLSDGTVVKVAGAGLQAGTAYDVGQCAWVDTGVLACNPADFSSVTADANGSASTSLTVRRSFEGFLFDGTRWGTVDCTTAACQVGLSDAAGNGPEGVAISFN
# modifications: with enediyne chromophore
# Legend:
# [1] = cited from earlier work
# NADH-oxidase = details: plasma membrane redox enzyme; cited from earlier work
# [2] = tested on: normal or transferrin receptor-negative cells; details: cited from earlier work
# [3] = tested on: leukemic cells in peripheral blood; details: cited from earlier work
# metastatic sarcoma = details: person, 2000 as printed
# Description: This concerns a person with metastatic disease from a sarcoma of their right atrium who was treated beginning August, 2000 by using conventional protocols.
# [4] = tested on: drug-resistant HL60 cells; details: cited from earlier work
# leukemic cells = details: cells from peripheral blood and marrow of leukemia patients; cited from earlier work
# [5] = tested on: drug-resistant K562 cells; details: cited from earlier work
# human mesothelioma cells = details: cited from earlier work
# [6] = nude mice; cited from earlier work
molecule,measurement,setting,value
O=C(O)CCCc1ccc(N(CCCl)CCCl)cc1 [chlorambucil],survival of treated mice,[1],died
"COc1cccc2c1C(=O)c1c(O)c3c(c(O)c1C2=O)C[C@@](O)(C(=O)CO)C[C@@H]3O[C@H]1C[C@H](N)[C@H](O)[C@H](C)O1 [doxorubicin, reference compound]",inhibition of NADH-oxidase,NADH-oxidase,efficient inhibitor
"human transferrin-chlorambucil conjugates: human transferrin conjugated to chlorambucil, reference 51",survival of treated mice,[1],survived
same,toxicity compared with free chlorambucil,[1]; mice,less toxic
transferrin-doxorubicin conjugates,binding to cells,[2],do not bind
same,decrease of number of leukemic cells in peripheral blood,"[3]; 7 patients, within 10-days following therapy",86%
same,extension of disease by bone marrow biopsies before and after treatment,[3]; acute leukemia patients,no extension of disease
same,toxic effects,"[3]; seven acute leukemia patients, 1 mg/day intravenously for 5 days",no toxic effects
same,radiological evidence of tumor,metastatic sarcoma; by January,no radiological evidence of tumor
same,metastatic lesions of the lungs,"metastatic sarcoma; treatment begun November 2000, by January",substantially cleared
same,killing of cells resistant to doxorubicin,[4],effective in killing
same,selective killing of leukemic cells,leukemic cells,kill selectively
same,killing of cells resistant to doxorubicin,[5],effective in killing
same,survival compared with free doxorubicin,human mesothelioma cells; nude mice bearing drug-resistant human tumors,survive longer
same,life prolongation compared to animals treated only with doxorubicin,"human mesothelioma cells; nude mice, human mesothelioma cells",significantly prolonged life
same,inhibition of NADH-oxidase,NADH-oxidase,inhibit
B1,half-life,[6],7 min
